Measurements from patent US20030104079A1, “Skin tissue regeneration promoters comprising ginsenoside Rb1” (Japan Science and Technology Corporation, Japan, priority 2000, published 2003).

Columns and labels:
[1] = tested on: open wound of skin; assay: Open wound healing by intravenous preinfusion before punch biopsy; format: in vivo, Wistar rats
Procedure: Then, we (the present inventors) have examined whether intravenous administration of ginsenoside Rb1 before preparation of open wound of skin can promote regeneration and/or reconstruction of the skin tissue. For that purpose, ginsenoside Rb1 (12 μg) dissolved in physiological saline was intravenously administered once into male Wistar rats (body weight about 300 g), under inhalation anesthesia, subsequently, continuous intravenous infusion of ginsenoside Rb1 (12 μg/day) was conducted for 4 days by using an Alza osmotic minipump. Thereafter, the punch biopsy with diameter 6 mm was performed in the dorsal skin region of animals under inhalation anesthesia to make open wound, and simultaneously, ginsenoside Rb1 was continuously infused intravenously for 3 days.
An equal amount of physiological saline was administered intravenously in the control animals, for which the same open wound was prepared to leave the animals as they were.
On day 2 after finishing continuous intravenous administration of ginsenoside Rb1 or physiological saline (i.e. on day 5 after preparation of the open wound), the animals were anesthetized with pentobarbital and fixed transcardially with perfusion of 0.1 M phosphate buffer containing 4% paraformaldehyde. Thereafter, the skin tissue including the open wound was dissected out, post-fixed and embedded in paraffin according to the conventional method. Paraffin sections 5 μm thick were cut and stained with hematoxylin-eosin (HE). FIG. 3 is a photograph in place of drawing. […] “i” indicates incrustation or eschar, “ep” indicates stratified squamous epithelium of epidermis, and “by” indicates blood vessel.
Intravenous administration of physiological saline solution containing ginsenoside Rb1 (12 μg) was conducted once in male Wistar rats weighing about 300 g under inhalation anesthesia, subsequently, ginsenoside Rb1 was continuously infused intravenously for 4 days through an Alza osmotic minipump at a dose of 12 μg/day. […]

[2] = tested on: cuttings of pothos; assay: Hydroponic culture of cuttings of pothos (rooting); set-up: species or system pothos (Epipremunum aureum, golden pothos); settings: 100 fg/ml in water
Procedure: Next, we have examined whether ginsenosides, especially ginsenoside Rb1, can promote generation, regeneration or reconstruction of not only skin tissue or mouth mucosal tissue but also plant tissues. For that purpose, one of foliage plants, pothos is selected. Six cuttings resembled with each other from the parent plant of pothos in the room of one of the inventors (Tanaka) were collected. Among them, 3 cuttings were cultured by hydroponics with the use of only water and the remaining three were cultured in water containing ginsenoside Rb1 at a concentration of 100 fg/ml. FIG. 9 is a photograph in place of drawing.
Then, we have further continued cultivation of the above cuttings with hydroponics and on day 22, again photographs were taken. FIG. 10 is a photograph in place of drawing. Left photograph in FIG. 10 is the cuttings of pothos cultured with only water for 22 days and right photograph in FIG. 10 is the cuttings cultured with water containing the low concentration of ginsenoside Rb1 (100 fg/ml). Waters with or without containing ginsenoside Rb1 for hydroponics were exchanged once in a week. We have further made observation of rooting region on day 27.
Next, we have examined whether a crude saponin fraction of ginseng, like ginsenoside Rb1 at low concentrations, can promote, generation, regeneration or reconstruction of the cutting of pothos. For that purpose, two cuttings resembled with each other from the parent plant of pothos were collected. Among them, the one cutting was cultured with only water and the remaining one was cultured in water containing the crude saponin fraction of ginseng at a concentration of 1450 fg/ml. FIG. 11 is a photograph in place of drawing. Left photograph in FIG. 11 is the cutting cultured with only water and right photograph in FIG. 11 is the cutting cultured with water containing the crude saponin fraction of ginseng (1450 fg/ml). […]

CC(C)=CCC[C@](C)(O[C@@H]1O[C@H](CO[C@@H]2O[C@H](CO)[C@@H](O)[C@H](O)[C@H]2O)[C@@H](O)[C@H](O)[C@H]1O)[C@H]1CC[C@]2(C)[C@@H]1[C@H](O)C[C@@H]1[C@@]3(C)CC[C@H](O[C@@H]4O[C@H](CO)[C@@H](O)[C@H](O)[C@H]4O[C@@H]4O[C@H](CO)[C@@H](O)[C@H](O)[C@H]4O)C(C)(C)[C@@H]3CC[C@]12C [ginsenoside Rb1]
regeneration, generation and reconstruction of ruptured and excised blood vessels (FIG. 3) ([1]; 12 μg/day iv 4 days before and 3 days after open wound, day 5 after open wound): facilitated | regeneration and reconstruction of skin tissue (FIG. 3) ([1]; 12 μg/day iv 4 days before and 3 days after open wound, day 5 after open wound, vs physiological saline): regeneration and reconstruction of skin tissue were obviously promoted | effect on healthy tissues, ginsenoside Rb1-administered vs physiological saline-administered case ([1]; continuous intravenous administration of low dosages): no clear difference was observed | generation or regeneration of roots (FIG. 10) ([2]; 22 days): many roots were generated or regenerated | growth of root (FIG. 9) ([2]; day 13, vs water alone): growth of root is promoted | secondary rooting arising from the primary rooting regions ([2]; day 27, none on cuttings in water only): clearly observed on all three cuttings
